#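 Compound exposure: 48 hours, 5 concentrations, 96-well plates. GI50: concentration for 50% inhibition of growth.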 The source made the active and inactive calls. Rule as the data show it: active = GI50 up to about 1.1 µM and inactive = higher.
# What was measured:
# Assay in all cases: NCI anticancer screen, dose series, 48 h
# CAKI-1 = test system: CAKI-1
# OVCAR-3 = test system: OVCAR-3
# UO-31 = test system: UO-31
# CCRF-CEM = test system: CCRF-CEM
# MOLT-4 = test system: MOLT-4
# HCC 2998 = test system: HCC 2998
# M14 = test system: M14
# RPMI-8226 = test system: RPMI-8226
# SN12C = test system: SN12C
# SK-MEL-5 = test system: SK-MEL-5
# NCI-H460 = test system: NCI-H460
# LOX IMVI = test system: LOX IMVI
# IGROV-1 = test system: IGROV-1
# TK-10 = test system: TK-10
# NCI-H23 = test system: NCI-H23
# SNB-19 = test system: SNB-19
Structure (SMILES),GI50 (CAKI-1),GI50 (OVCAR-3),GI50 (UO-31),GI50 (CCRF-CEM),GI50 (MOLT-4),GI50 (HCC 2998),GI50 (M14),GI50 (RPMI-8226),GI50 (SN12C),GI50 (SK-MEL-5),GI50 (NCI-H460),GI50 (LOX IMVI),GI50 (IGROV-1),GI50 (TK-10),GI50 (NCI-H23),GI50 (SNB-19)
CC1(C)OC(=O)C(=C2CC(c3ccccc3)c3ccccc32)C(=O)O1 (stereo not drawn),> 100 µM (inactive),> 100 µM (inactive),> 100 µM (inactive),> 100 µM (inactive),> 100 µM (inactive),> 100 µM (inactive),> 100 µM (inactive),> 100 µM (inactive),> 100 µM (inactive),> 100 µM (inactive),> 100 µM (inactive),> 100 µM (inactive),> 100 µM (inactive),> 100 µM (inactive),> 100 µM (inactive),> 100 µM (inactive)
O=C(/C=C/c1ccc(Br)cc1)c1ccc(NCc2nc3ccccc3[nH]2)cc1,9.68 µM (inactive),4.61 µM (inactive),7.73 µM (inactive),4.76 µM (inactive),3.31 µM (inactive),6.56 µM (inactive),17.9 µM (inactive),1.93 µM (inactive),9.93 µM (inactive),4.4 µM (inactive),8.22 µM (inactive),2.11 µM (inactive),17.3 µM (inactive),11.1 µM (inactive),4.95 µM (inactive),8.79 µM (inactive)
O=[N+]([O-])c1ccc(C2N3CCCCC3[C@@H]3c4[nH]c5ccccc5c4CCN23)cc1 (stereo partly drawn),26.9 µM (inactive),18.4 µM (inactive),16.1 µM (inactive),27.5 µM (inactive),10.2 µM (inactive),–,16.1 µM (inactive),16.5 µM (inactive),15.4 µM (inactive),15 µM (inactive),19.2 µM (inactive),–,24 µM (inactive),10.7 µM (inactive),15.5 µM (inactive),16.6 µM (inactive)
COc1cc2cc(OC)c3cc4c(cc3c2c(OC)c1OC)OCO4,33 µM (inactive),41.5 µM (inactive),29.4 µM (inactive),15 µM (inactive),22.8 µM (inactive),11 µM (inactive),19.7 µM (inactive),14.7 µM (inactive),> 69.3 µM (inactive),23.4 µM (inactive),17.6 µM (inactive),15.5 µM (inactive),> 66.8 µM (inactive),48.3 µM (inactive),39.8 µM (inactive),> 100 µM (inactive)
CC1=C(/C(C)=N/NC(=O)C(N)=O)Sc2ccccc2N1,> 100 µM (inactive),> 100 µM (inactive),> 100 µM (inactive),> 100 µM (inactive),> 100 µM (inactive),> 100 µM (inactive),> 100 µM (inactive),> 100 µM (inactive),> 100 µM (inactive),> 100 µM (inactive),> 100 µM (inactive),> 100 µM (inactive),> 100 µM (inactive),> 100 µM (inactive),> 100 µM (inactive),> 100 µM (inactive)
CSC(=S)N/N=C/c1nccc2ccccc12,2.34 µM (inactive),–,1.94 µM (inactive),0.115 µM (active),0.204 µM (active),1.3 µM (inactive),1.36 µM (inactive),0.522 µM (active),1.6 µM (inactive),1.08 µM (active),1.09 µM (active),1.49 µM (inactive),1.91 µM (inactive),7.08 µM (inactive),1.42 µM (inactive),2.29 µM (inactive)
O=C(N/C(=C\c1ccc(F)cc1)c1nc2ccccc2[nH]1)c1ccccc1,> 100 µM (inactive),> 100 µM (inactive),> 100 µM (inactive),> 100 µM (inactive),> 100 µM (inactive),–,> 100 µM (inactive),> 100 µM (inactive),> 100 µM (inactive),> 100 µM (inactive),> 100 µM (inactive),> 100 µM (inactive),> 100 µM (inactive),> 100 µM (inactive),> 100 µM (inactive),> 100 µM (inactive)
CCOc1ccc(/N=C\c2cc(OC)c(OC)c(OC)c2)cc1,> 100 µM (inactive),> 100 µM (inactive),> 100 µM (inactive),> 100 µM (inactive),> 100 µM (inactive),–,> 100 µM (inactive),18.2 µM (inactive),> 100 µM (inactive),> 100 µM (inactive),> 100 µM (inactive),> 100 µM (inactive),> 100 µM (inactive),> 100 µM (inactive),> 100 µM (inactive),> 100 µM (inactive)
O=C(CCc1ccccc1)NS(=O)(=O)c1ccccc1,> 100 µM (inactive),> 100 µM (inactive),> 100 µM (inactive),> 100 µM (inactive),> 100 µM (inactive),> 100 µM (inactive),> 100 µM (inactive),> 100 µM (inactive),> 100 µM (inactive),–,> 100 µM (inactive),> 100 µM (inactive),> 100 µM (inactive),> 100 µM (inactive),> 100 µM (inactive),> 100 µM (inactive)

# Source: ChEMBL document CHEMBL1201862, “PubChem BioAssay data set” (2004)
